Data on 31 compounds can be found in US20230365592A1 (Agios Pharmaceuticals, Inc., priority 2022, published 2023).

A word on the AC50: it is the midpoint of the concentration-response curve, whichever way the signal moves.

Bounds are passed on as bounds.

The target of one assay is T1, human PAH with the R408W mutation (Homo sapiens, UniProt P00439, R408W).
T1 construct: expressed in transfected cells
T1 sequence (P00439 1-452 R408W): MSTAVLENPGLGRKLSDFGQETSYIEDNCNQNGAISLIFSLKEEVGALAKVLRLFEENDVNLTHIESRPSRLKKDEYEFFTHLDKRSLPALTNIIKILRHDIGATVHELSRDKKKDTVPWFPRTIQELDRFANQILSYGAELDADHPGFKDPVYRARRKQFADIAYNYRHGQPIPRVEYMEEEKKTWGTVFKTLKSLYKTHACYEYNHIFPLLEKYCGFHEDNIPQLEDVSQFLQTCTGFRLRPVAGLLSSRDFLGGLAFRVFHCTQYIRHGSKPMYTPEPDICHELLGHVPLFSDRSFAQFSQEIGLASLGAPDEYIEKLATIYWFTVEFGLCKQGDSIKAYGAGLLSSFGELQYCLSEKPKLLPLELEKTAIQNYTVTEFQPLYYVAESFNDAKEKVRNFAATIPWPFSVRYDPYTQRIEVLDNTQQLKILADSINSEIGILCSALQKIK
As to the kind of experiment: Cell Based Phenylalanine Flux Assay.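 Note: after compound treatment, cells received sepiapterin plus isotope-labelled Phenylalanine for 4 hours, then labelled Tyrosine in the medium was quantified, 10-point 2-fold dilution series run in duplicate.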 The note with it: A375 cells expressing R408W PAH; 24 hrs with compound, then 20 µM sepiapterin and 800 µM 13C9,15N-Phenylalanine for 4 hours; 13C-Tyrosine by LC-MS; average where tested multiple times; read-out: AC50.
With `Cn1cc(-c2nnc(N3CCc4[nH]cnc4C3c3cc4ccccn4n3)o2)cn1` (stereo not shown), the AC50 was 1000 to 5000 nM. As to `COCCNc1nnc(C(=O)N2CCc3[nH]cnc3C2c2cc3ccccn3n2)o1` (stereo not shown), the AC50 was > 5000 nM. On the same count and under the same terms, the result for `Cc1nnc(N2CCc3[nH]cnc3C2c2cc3cccc(F)n3n2)o1` (stereo not shown) reads > 5000 nM; that for `c1cc(C2CC2)c2cc(C3c4nc[nH]c4CCN3c3nnc(-c4cnccn4)o3)nn2c1` (stereo not shown), 1000 to 5000 nM.

As for `CC1(c2nnc(-n3cnc4c3[C@@H](c3cc5ccccn5n3)NCC4)o2)CC1` (single isomer, unassigned), the concentration at half-maximal activity (AC50) was 1000 to 5000 nM. Still for that read-out and setting: the result for `Cc1cccc2cc(C3c4nc[nH]c4CCN3C(=O)c3nc(C(F)(F)F)nn3C)nn12` (stereo not shown) reads > 5000 nM; that for `Fc1cccn2nc([C@H]3c4nc[nH]c4CCN3c3nnc(-c4cccnc4)o3)cc12` (single isomer, unassigned), > 5000 nM; that for `Fc1cccc(-c2nnc(N3CCc4[nH]cnc4C3c3cc4ccccn4n3)o2)n1` (stereo not shown), 1000 to 5000 nM. Same read-out and setting: the value for `Cn1nc(C(F)F)nc1C(=O)N1CCc2[nH]cnc2C1c1cc2cccc(C(F)(F)F)n2n1` (stereo not shown) was 1000 to 5000 nM. Same read-out and setting: the result for `Fc1ncccc1-c1nnc(N2CCc3[nH]cnc3C2c2cc3c(C(F)F)cccn3n2)o1` (stereo not shown) reads > 5000 nM.

The same assay, now with this note: A375 cells expressing human PAH R408W; 24 hrs compound incubation; 13C-Tyrosine by LC-MS; average where tested multiple times; read-out: AC50.
As to `Cc1cccnc1-c1nnc(N2CCc3[nH]cnc3[C@H]2c2cc3cccc(C(F)(F)F)n3n2)o1` [Example 2336, (S)-2-(3-methylpyridin-2-yl)-5-(4-(7-(trifluoromethyl)pyrazolo[1,5-a]pyridin-2-yl)-1,4,6,7-tetrahydro-5H-imidazo[4,5-c]pyridin-5-yl)-1,3,4-oxadiazole], the AC50 lay in the range of 500 to 1000 nM. Take `FC(F)(F)c1cnc(N2CCc3[nH]cnc3[C@H]2c2cc3cccc(C(F)(F)F)n3n2)nc1` [Example 1810, (S)-4-(7-(trifluoromethyl)pyrazolo[1,5-a]pyridin-2-yl)-5-(5-(trifluoromethyl)pyrimidin-2-yl)-4,5,6,7-tetrahydro-1H-imidazo[4,5-c]pyridine]: the AC50 was 500 to 1000 nM.

`O=C(c1nc2ccccc2s1)N1CCc2[nH]cnc2[C@H]1c1cc2c(C(F)F)cccn2n1` [Example 2022, (S)-benzo[d]thiazol-2-yl(4-(4-(difluoromethyl)pyrazolo[1,5-a]pyridin-2-yl)-1,4,6,7-tetrahydro-5H-imidazo[4,5-c]pyridin-5-yl)methanone]: the half-maximal activity concentration (AC50) fell in the range of 500 to 1000 nM. Turning to `Cc1ncccc1-c1nnc(N2CCc3[nH]cnc3[C@H]2c2cc3c(Cl)cccn3n2)o1` [Example 2236, (S)-2-(4-(4-chloropyrazolo[1,5-a]pyridin-2-yl)-1,4,6,7-tetrahydro-5H-imidazo[4,5-c]pyridin-5-yl)-5-(2-methylpyridin-3-yl)-1,3,4-oxadiazole], the half-maximal activity concentration (AC50) is < 500 nM. Regarding `FC(F)c1cccn2nc([C@@H]3c4nc[nH]c4CCN3c3ccccn3)cc12` [Example 1979, (S)-4-(4-(difluoromethyl)pyrazolo[1,5-a]pyridin-2-yl)-5-(pyridin-2-yl)-4,5,6,7-tetrahydro-1H-imidazo[4,5-c]pyridine], the AC50 is < 500 nM. On the same count and under the same terms, the result for `Cc1nnc(N2CCc3[nH]cnc3[C@H]2c2cc3c(C)cccn3n2)o1` [Example 2443, (S)-2-methyl-5-(4-(4-methylpyrazolo[1,5-a]pyridin-2-yl)-6,7-dihydro-1H-imidazo[4,5-c]pyridin-5(4H)-yl)-1,3,4-oxadiazole] reads 1000 to 5000 nM. Same read-out and setting: the value for `Clc1cccn2nc([C@@H]3c4nc[nH]c4CCN3c3nnc(-c4cccnn4)o3)cc12` [Example 2198, (S)-2-(4-(4-chloropyrazolo[1,5-a]pyridin-2-yl)-1,4,6,7-tetrahydro-5H-imidazo[4,5-c]pyridin-5-yl)-5-(pyridazin-3-yl)-1,3,4-oxadiazole] was 500 to 1000 nM; that for `Fc1cccnc1-c1nnc(N2CCc3[nH]cnc3[C@H]2c2cc3ccccn3n2)o1` [Example 2338, (S)-2-(3-fluoropyridin-2-yl)-5-(4-(pyrazolo[1,5-a]pyridin-2-yl)-1,4,6,7-tetrahydro-5H-imidazo[4,5-c]pyridin-5-yl)-1,3,4-oxadiazole] was 500 to 1000 nM. Turning to `COc1cccn2nc([C@H]3c4nc[nH]c4CCN3C(=O)c3cnn4cc(C)ccc34)cc12` [Example 2471, (R)-(4-(4-methoxypyrazolo[1,5-a]pyridin-2-yl)-6,7-dihydro-1H-imidazo[4,5-c]pyridin-5(4H)-yl)(6-methylpyrazolo[1,5-a]pyridin-3-yl)methanone], the AC50 is > 5000 nM.

`Cn1nccc1-c1nnc(C(=O)N2CCc3[nH]cnc3[C@H]2c2cc3ccccn3n2)o1` [Example 2004, (S)-(5-(1-methyl-1H-pyrazol-5-yl)-1,3,4-oxadiazol-2-yl)(4-(pyrazolo[1,5-a]pyridin-2-yl)-1,4,6,7-tetrahydro-5H-imidazo[4,5-c]pyridin-5-yl)methanone]: the AC50 lay within 500 to 1000 nM. Same read-out and setting: the value for `Fc1cccc(F)c1-c1nnc(N2CCc3[nH]cnc3[C@H]2c2cc3c(C(F)F)cccn3n2)o1` [Example 1863, (S)-2-(4-(4-(difluoromethyl)pyrazolo[1,5-a]pyridin-2-yl)-1,4,6,7-tetrahydro-5H-imidazo[4,5-c]pyridin-5-yl)-5-(2,6-difluorophenyl)-1,3,4-oxadiazole] was < 500 nM.

Staying with this assay, now noted: A375 cells expressing human R408W PAH; 24 hrs compound incubation; 13C-Tyrosine by LC-MS; average where tested multiple times; read-out: AC50.
On to `Cc1nc([C@H](C)O)oc1C(=O)N1CCc2[nH]cnc2[C@H]1c1cc2c(Cl)cccn2n1` [Example 708, ((S)-4-(4-chloropyrazolo[1,5-a]pyridin-2-yl)-6,7-dihydro-1H-imidazo[4,5-c]pyridin-5(4H)-yl)(2((S)-1-hydroxyethyl)-4-methyloxazol-5-yl)methanone], for which the AC50 is < 500 nM. As to `Cn1nc(C(F)F)cc1C(=O)N1CCc2[nH]cnc2[C@@H]1c1cc2c(Cl)cccn2n1` [Example 1369, (R)-(4-(4-chloropyrazolo[1,5-a]pyridin-2-yl)-6,7-dihydro-1H-imidazo(4,5-c]pyridin-5(4H)-yl)(3-(difluoromethyl)-1-methyl-1H-pyrazol-5-yl)methanone], the half-maximal activity concentration (AC50) is 1000 to 5000 nM. The same measure, in the same setting: the value for `C[C@H](O)c1nc(C(F)F)c(C(=O)N2CCc3[nH]cnc3[C@H]2c2cc3cccc(C(F)(F)F)n3n2)o1` [Example 1200, (4-(difluoromethyl)-2-((S)-1-hydroxyethyl)oxazol-5-yl)((S)-4-(7-(trifluoromethyl)pyrazolo[1,5-a]pyridin-2-yl)-6,7-dihydro-1H-imidazo[4,5-c]pyridin-5(4H)-yl)methanone] was 500 to 1000 nM. Still for that read-out and setting: the result for `Cn1cc(-c2nnc(C(=O)N3CCc4[nH]cnc4[C@@H]3c3cc4ccc(F)cn4n3)o2)cn1` [Example 1101, (R)-(4-(6-fluoropyrazolo[1,5-a]pyridin-2-yl)-6,7-dihydro-1H-imidazo[4,5-c]pyridin-5(4H)-yl)(5-(1-methyl-1H-pyrazol-4-yl)-1,3,4-oxadiazol-2-yl)methanone] reads > 5000 nM; that for `Cc1cc(-c2nnc(C(=O)N3CCc4[nH]cnc4[C@@H]3c3cc4cccc(F)n4n3)o2)nn1C` [Example 1564, (R)-(5-(1,5-dimethyl-1H-pyrazol-3-yl)-1,3,4-oxadiazol-2-yl)(4-(7-fluoropyrazolo[1,5-a]pyridin-2-yl)-6,7-dihydro-1H-imidazo[4,5-c]pyridin-5(4H)-yl)methanone], > 5000 nM; that for `Cc1cccn2nc([C@@H]3c4nc[nH]c4CCN3C(=O)c3nnc(-c4cnn(C(F)(F)F)c4)o3)cc12` [Example 1472, (S)-(4-(4-methylpyrazolo[1,5-a]pyridin-2-yl)-6,7-dihydro-1H-imidazo[4,5-c]pyridin-5(4H)-yl)(5-(1-(trifluoromethyl)-1H-pyrazol-4-yl)-1,3,4-oxadiazol-2-yl)methanone], 500 to 1000 nM. The same measure, in the same setting: the result for `Cc1cccc2cc([C@@H]3c4nc[nH]c4CCN3C(=O)c3oc(C(C)(C)F)nc3C(F)F)nn12` [Example 1230, (S)-(4-(difluoromethyl)-2-(2-fluoropropan-2-yl)oxazol-5-yl)(4-(7-methylpyrazolo[1,5-a]pyridin-2-yl)-6,7-dihydro-1H-imidazo[4,5-c]pyridin-5(4H)-yl)methanone] reads < 500 nM; that for `Cc1cccc2cc([C@H]3c4nc[nH]c4CCN3C(=O)c3oc([C@@H](C)O)nc3C(F)F)nn12` [Example 1165, (4-(difluoromethyl)-2-((R)-1-hydroxyethyl)oxazol-5-yl)((R)-4-(7-methylpyrazolo[1,5-a]pyridin-2-yl)-6,7-dihydro-1H-imidazo[4,5-c]pyridin-5(4H)-yl)methanone], 1000 to 5000 nM; that for `Cc1ncccc1-c1nnc(C(=O)N2CCc3[nH]cnc3[C@H]2c2cc3cccc(C(F)(F)F)n3n2)o1` [Example 1342, (S)-(5-(2-methylpyridin-3-yl)-1,3,4-oxadiazol-2-yl)(4-(7-(trifluoromethyl)pyrazolo[1,5-a]pyridin-2-yl)-6,7-dihydro-1H-imidazo[4,5-c]pyridin-5(4H)-yl)methanone], 500 to 1000 nM. As for `Cc1ccc2c(C(=O)N3CCc4[nH]cnc4[C@@H]3c3cc4cccc(F)n4n3)cnn2c1` [Example 1787, (R)-(4-(7-fluoropyrazolo[1,5-a]pyridin-2-yl)-6,7-dihydro-1H-imidazo[4,5-c]pyridin-5(4H)-yl)(6-methylpyrazolo[1,5-a]pyridin-3-yl)methanone], the concentration at half-maximal activity (AC50) lay in the range of 1000 to 5000 nM.
